Laboratory results: patent publication US20240139149A1, “THERAPEUTIC USES OF UROLITHIN DERIVATIVES” (Vandria SA, priority 2022, published 2024)
“Also recorded” adds a separate entry of the source.

Test system: splenic murine T cells
Assay: Murine T cells stimulated with αCD3/αCD28 in presence of UA
Format: cell-based
Protocol: Splenic murine T cells were isolated from mice aged 6-20 weeks by negative selection with EasySep mouse T cell isolation kit (Stem cell) according to the manufacturer's instructions. To monitor T cell proliferation, purified T cells were loaded with CellTrace Violet (C34557 ThermoFisher Scientific). T cell activation was initiated using αCD3/CD28 activation beads (11456D; ThermoFisher Scientific) at a ratio of 25 μl dynabeads per 0.5×106 T-cells. Cells were activated with 25-50 μM Urolithin A (Tocris) or DMSO in T cell activation Medium (RPMI (ThermoFisher Scientific) 10% FBS (South America origin), 10 mM Hepes (Sigma), 1×Non-Essential Amino Acid, 1 mM Sodium Pyruvate, 50 µM β-Mercaptoethanol, 100 U/mL penicillin, 100 μg/mL streptomycin and 2 mM Glutamax (ThermoFisher Scientific) for the indicated durations. In selected experiments, cells were stimulated in the presence of inhibitors, namely TCFli (ICG-001; SelleckChem; […]) and PGC-lai (SR-18292, Sigma-Aldrich; […]). For subsequent analysis, activating beads were magnetically removed prior antibody staining. For human T cells, peripheral blood mononuclear cells were purified with a Ficoll-Paque (GE healthcare) gradient. T cells were enriched with EasySep Human T Cell Isolation Kit (StemCell) and activated with dynabead Human T-Activator CD3/CD28 for T Cell Expansion and Activation Kit (11131D; ThermoFisher Scientific), similar to murine T cell stimulation. When the subsequent activation and expansion of CAR T cells was studied, plates were coated with 1 μg/mL anti-human CD3 (αCD3; clone OKT3) and thawed PBMC were cultivated with […] anti-human CD28 (αCD28; 15E8, both Miltenyi Biotec) containing media for three days. (NutriT media (4Cell® Nutri-T media (Sartorius) containing 0.5% penicillin/streptomycin) supplemented with IL-7 (25 U/mL) and IL-15 […] (all Miltenyi Biotec)).
Tumors were minced and digested with Tumor & Tissue Dissociation Reagent (BD Horizon) for 30 min. The remaining organ pieces were filtered through a 70 µm cell strainer. Cells were then washed with PBS 1% BSA and 2 mM EDTA. Immune cells were enriched on a 30%/40%/75% Percoll gradient after a 1700 rpm 17 min centrifugation. Then, tumor immune filtrates or activated T cells were stained with Fixable Viability Dye-eF780 (65-0865-14; eBioscience), αCD45-FITC (30-F11; 11-0451-85; eBioscience), αCD11b-BV650 (M1/70; 56340; BD) α-CD11c-BV785 (HL3; 563735; BD), aLy6G-BV605 (53-6.7; 563005; BD), aLy6C-AF700 (HK1.4; 128024; Biolegend), aF4/80-PE (BM8; 12-4801-82, eBioscience), aPD-L1-PECy7 (MIH5; 25-5982-80, eBioscience); or with Fixable Viability Dye-eF780 (ebioscience), αCD45-BV786 (30-F11; 564225; BD), αCD4-BUV496 (GK1.5; 564667; BD), αCD8-BV605 (100744; Biolegend), aPD1-APC (J43; 17-9985-82; eBioscience), aTIM-3-PECy7 (RMT3-23; 119715; Biolegend), aCTLA4-PE (UC10-4B9; 106305; Biolegend) and aLag3-BV421 (C9B7W; 125221, Biolegend); or with Fixable Viability Dye-eF780 (eBioscience), αCD4-FITC (H129.19; 553650; BD), αCD8-APC (53-6.7; 17-0081-83; eBioscience), αCD44-AF400 (IM7; 103026; Biolegend), αCD62L-BV785 (MEL-14; 104440; Biolegend), αSca-1-PerCP-Cy5.5 (D7; 45-5981-82; eBioscience), αCD95-PE (Jo2; 554258; BD); or with Fixable Viability Dye-eF780 (eBioscience), αCD8-BV650 (53-6.7; 563234; BD), αCD4-BUV496 (GK1.5; 564667; BD), αCD127-APC (A7R34; 17-1271-82; eBioscience), αCD95-FITC (SA367H8;152605; Biolegend), αCD44-AF400 (IM7; 103026; Biolegend), αCD62L-BV785 (MEL-14; 104440; Biolegend), αSca-1-PerCP-Cy5.5 (D7; 45-5981-82; eBioscience) followed by intracellular staining of aTCF1-PE (S33-966; 564217; BD), or PGC-1α (sc-518025; D-5; santa cruz), or aCyclinD1 (MA5-28534, DCS-6; Invitrogen) with transcription factor buffer set kit (BD Biosciences). To study cytokine expression, tumor immune infiltrates were stimulated ex vivo with 20 ng/mL PMA and […] Ionomycin (Sigma) for 3 h in T cell activation medium with Brefeldin A (Biolegend). […]

In the case of `O=c1oc2cc(O)ccc2c2ccc(O)cc12` [UA, Urolithin A], the “lysosome formation in CD8+ T cells” value (6 h, UA 50 μM) is reported as “enhanced”, the “phosphorylation of Stat1” value (6 h, UA 50 μM vs vehicle) is reported as “equal phosphorylation” and the Parkin protein expression (24 h, UA 50 μM) is reported as “stabilized”. For the same compound, the “PGC-1α in Pink1−/− or Pgam5−/− CD8+ T cells” value (48 h, UA 50 μM) was “failed to enhance”, the “cyclin D1 expression” value (48 h, UA 50 μM) was “reduced” and the “CD8+ T cell division / proliferation” value (72 h) was “restricted; also recorded: restricts T cell proliferation”. The “central memory cells (TCM)” value (CD8+ T cells, αCD3/αCD28) was “reduction”, the “frequency of effector memory cells (TEM)” value (CD8+ T cells, αCD3/αCD28) was “remained unaltered” and the “naïve CD44loCD62Lhi T cells” value (CD8+ T cells, αCD3/αCD28) was “significant increase”. The “number of CD44-CD62L+Sca1hi TSCM” value (CD8+ T cells, αCD3/αCD28, up to 72 hours) was “significantly increased”, the “UA-dependent expansion of CD44-CD62L+Sca1Hi TSCM cells in Pgam5−/− T cells” value (Pgam5−/− CD8+ T cells) was “blocked” and the “TSCM phenotype in Pink1−/− CD8+ T cells” value (Pink1−/− CD8+ T cells, presence of UA) was “failed to exhibit a TSCM phenotype”. The “UA-induced lysosome formation and decrease in mitochondrial content in Pink1−/− T cells” value (Pink1−/− T cells) was “prevented”, the “expression of genes that code for immune checkpoints and effector molecules” value (RNA sequencing, 48 hours) was “reduced” and the β-catenin phosphorylation (after 6 hours) was “marked decrease”. For the same compound, the “mitochondrial content in CD8+ T cells” value (after 24 hours) was “loss of mitochondrial content in a dose-dependent manner”, the PGC-1α expression (prolonged UA administration in vitro (48 h, 50 μM)) was “marked upregulation” and the “transcription of Wnt target genes” value (qPCR, 24 h after stimulation) was “increased transcription”. For the same compound, the Pgam5 localization (sub-cellular fractionation immunoblot and immunofluorescence, 6 h) was “rapidly released into the cytoplasma”, the “T cell death in vitro” value (various concentrations of UA) was “dose-dependent T cell death” and the “mitochondrial membrane potential in CD8+ T cells” value (within six hours after UA administration) was “reduction”. The “TSCM formation in CD4+ cells” value (αCD3/αCD28) was “did not promote enhanced TSCM formation”, the “differentiation into effector T cells (Granzyme B, IFNγ)” value (αCD3/αCD28 beads, 48 h) was “blocked” and the “Atg5, Atg7, p62, Lamp2 and Pink1 gene expression” value (αCD3/αCD28 stimulated T cells, 24 h, UA 50 μM) was “significant upregulation”.
